The values that follow come from US20230143545A1, “Treating Pulmonary Inflammatory Disease Associated With Covid-19 By Administering Resiniferatoxin” (Sorrento Therapeutics, Inc., priority 2020, published 2023).

Structures are written as SMILES. “Also recorded” adds a separate entry of the source.

In test [1] the test system is Bleo-exposed rats. Nature of the test: Lung plasma extravasation (Evans Blue) in rat model of bleomycin lung injury. As to conditions: day 7.
Method: (§1) Rat Model of Lung Injury. Rats were randomized into three groups and evaluated at 1-week post-instillation as follows: sham rats, bleomycin (Bleo)-exposed rats with saline (epidural or intra-stellate injection), and Bleo-exposed rats with RTX (epidural or intra-stellate injection). Bleo (2.5 mg/kg, —0.15 mL) was instilled intra-tracheally to the lungs under 3% isoflurane anesthesia. Sham control rats underwent intra-tracheal instillation of saline. Animals were treated with RTX or vehicle (Veh; phosphate buffered saline) by either the epidural T1-T4 DRGs route (6 μg/ml, 10 μl/per ganglia) or intra-stellate ganglia administration (50μg/ml, 5 μl/per side) 3 days following Bleo delivery (FIG. 1A-B).
Epidural Application of RTX. The upper thoracic spinal afferents were ablated by epidural application of RTX. […] Briefly, rats were anesthetized using 2%-3% isoflurane:oxygen mixture. Rats were placed in the prone position and a small midline incision was made in the region of the T13-L1 thoracic vertebrae. Following dissection of the superficial muscles, two small holes (approximately 2 mm×2 mm) were made in the left and right sides of T13 vertebrae. A polyethylene catheter (PE-10) was inserted into the subarachnoid space via one hole and gently advanced about 4 cm approximating the T1 level. The upper thoracic sympathetic afferent ganglia were ablated by injecting resiniferatoxin (RTX; Sigma Aldrich), an ultra-potent agonist of the TRPV1 receptor into the subarachnoid space via the catheter. RTX (1 mg; Sigma Aldrich) was dissolved in a 1:1:8 mixture of ethanol, Tween 80 (Sigma-Aldrich), and isotonic saline. The first injection of RTX (6 μg/ml, 10 ul) was made at a very slow speed (˜1 minute) to minimize the diffusion of the drug. The catheter was then pulled back to T2, T3 and T4, respectively to perform serial injections (10 μl/each) at each segment. The catheter was withdrawn and the same injections were repeated on the other side. Silicone gel was used to seal the hole in the T13 vertebra. […]
Lung Plasma Extravasation, Tissue Extraction, and Quantification of Evans Blue. […]
The test system of test [2] is Bleo-exposed rats. Nature of the test: Lung tissue cytokine ELISA in rat model of bleomycin lung injury. As to conditions: day 7.
Method: as §1
Epidural Application of RTX. The upper thoracic spinal afferents were ablated by epidural application of RTX. […] Briefly, rats were anesthetized using 2%-3% isoflurane:oxygen mixture. Rats were placed in the prone position and a small midline incision was made in the region of the T13-L1 thoracic vertebrae. Following dissection of the superficial muscles, two small holes (approximately 2 mm×2 mm) were made in the left and right sides of T13 vertebrae. A polyethylene catheter (PE-10) was inserted into the subarachnoid space via one hole and gently advanced about 4 cm approximating the T1 level. The upper thoracic sympathetic afferent ganglia were ablated by injecting resiniferatoxin (RTX; Sigma Aldrich), an ultra-potent agonist of the TRPV1 receptor into the subarachnoid space via the catheter. RTX (1 mg; Sigma Aldrich) was dissolved in a 1:1:8 mixture of ethanol, Tween 80 (Sigma-Aldrich), and isotonic saline. The first injection of RTX (6 μg/ml, 10 ul) was made at a very slow speed (˜1 minute) to minimize the diffusion of the drug. The catheter was then pulled back to T2, T3 and T4, respectively to perform serial injections (10 μl/each) at each segment. The catheter was withdrawn and the same injections were repeated on the other side. Silicone gel was used to seal the hole in the T13 vertebra. The skin overlying the muscle were closed with a 3-0 polypropylene simple interrupted suture, and betadine was applied to the wound. For post-procedure pain management, buprenorphine (0.05 mg/kg) was subcutaneously injected immediately after surgery and twice daily for 2 days.
Intra-stellate Injection of RTX Rats were anesthetized using 2%-3% isoflurane:oxygen mixture. […] The skin from the rostral end of the sternum to the level of third rib was incised. Portions of the superficial and deep pectoral muscles and the first intercostal muscles were cut and dissected. To localize the left or right stellate ganglion, the left or right precava vein were separated with a hooked glass or steel rod laterally away from the brachiocephalic artery to expose the internal thoracic artery and the costocervical artery, which are descending branches of the right subclavian artery. Stellate ganglia and ansa subclavia are located medially to the origins of the internal thoracic and costocervical arteries. Then, RTX (5 μl, 50 mg/ml) was injected into the ganglia with a 5-μl Hamilton syringe (Microliter #95, Hamilton, Reno, Nev., USA.) over 30 s bilaterally. […] Betadine was applied to the wound and the rats were allowed to recover from the anesthesia. […]
Cytokine Assays. Lung and plasma cytokines were measured with R&D cytokine ELISA assays (Minneapolis, Minn., USA) according to the manufacturer's instructions.
The subject of test [3] is Bleo-exposed rats. Nature of the test: Plasma cytokine ELISA in rat model of bleomycin lung injury. The class given is in vivo. As to conditions: epidural RTX at day 3 after Bleo; day 7. As for the experimental part: Rat Model of Lung Injury.
Epidural Application of RTX.
Cytokine Assays. […] Organ weights were evaluated post-mortem.
Background: In an ELISA, binding on a coated surface is turned into a signal by an enzyme label.

For test [4], the system named is Bleo-exposed rats. Nature of the test: Body weight and organ weights post-mortem in rat model of bleomycin lung injury.
Method: as §1
Intra-stellate Injection of RTX Rats were anesthetized using 2%-3% isoflurane:oxygen mixture. […] The skin from the rostral end of the sternum to the level of third rib was incised. Portions of the superficial and deep pectoral muscles and the first intercostal muscles were cut and dissected. To localize the left or right stellate ganglion, the left or right precava vein were separated with a hooked glass or steel rod laterally away from the brachiocephalic artery to expose the internal thoracic artery and the costocervical artery, which are descending branches of the right subclavian artery. Stellate ganglia and ansa subclavia are located medially to the origins of the internal thoracic and costocervical arteries. Then, RTX (5 μl, 50 mg/ml) was injected into the ganglia with a 5-μl Hamilton syringe (Microliter #95, Hamilton, Reno, Nev., USA.) over 30 s bilaterally. […]
(§2) Statistics. Statistical evaluation was analyzed using GraphPad Prism (GraphPad Software, San Diego, Calif. Version 8). Differences between treatments were determined using a Mixedeffects model for repeated-measures ANOVA. […]
Test [5] has as its system Bleo-exposed rats. Nature of the test: Arterial blood gas analysis in rat model of bleomycin lung injury. The following applies: intra-stellate RTX at day 3 after Bleo; day 7; vs. Bleo+Veh.
Method: as §1
Intra-stellate Injection of RTX Rats were anesthetized using 2%-3% isoflurane:oxygen mixture. […] The skin from the rostral end of the sternum to the level of third rib was incised. Portions of the superficial and deep pectoral muscles and the first intercostal muscles were cut and dissected. To localize the left or right stellate ganglion, the left or right precava vein were separated with a hooked glass or steel rod laterally away from the brachiocephalic artery to expose the internal thoracic artery and the costocervical artery, which are descending branches of the right subclavian artery. Stellate ganglia and ansa subclavia are located medially to the origins of the internal thoracic and costocervical arteries. Then, RTX (5 μl, 50 mg/ml) was injected into the ganglia with a 5-μl Hamilton syringe (Microliter #95, Hamilton, Reno, Nev., USA.) over 30 s bilaterally. An image of this procedure is shown in FIG. 2A-B. Following these maneuvers, the thorax between the first and second intercostal spaces was closed with continuous 4-0 Dexon II coated braided absorbable polyglycolic acid suture and the skin was closed with 3-0 polypropylene suture and the chest evacuated. […]
as §2
The mark [6] stands for this setting: epidural RTX at day 3 after Bleo, vs. Bleo.
Where [7] appears, read: stellate RTX at day 3 after Bleo, vs. Bleo+Veh.
[8] abbreviates: intra-stellate RTX at day 3 after Bleo, day 7, vs. Bleo+Veh.

As for `C=C(C)[C@]12C[C@@H](C)[C@@]34O[C@](Cc5ccccc5)(O[C@@H]1[C@@H]3C=C(COC(=O)Cc1ccc(O)c(OC)c1)C[C@]1(O)C(=O)C(C)=C[C@@H]41)O2` [RTX, resiniferatoxin], in test [1] (epidural RTX T1-T4 (6 μg/ml, 10 μl/per ganglia) at day 3 after Bleo 2.5 mg/kg intra-tracheal, vs. Bleo), the “Plasma extravasation (Evans Blue areas / concentration in lung)” value is “reduced”. Besides, the “Plasma extravasation (Evans Blue dye in the lung)” value in test [1] (intra-stellate RTX (50μg/ml, 5 μl/per side) at day 3 after Bleo, vs. Bleo+Veh) is given as “marked reduction; also recorded: reduced”. Further, in test [2] (setting [6]), the “Lung tissue IFNγ level” value was “reduced”, the “Lung tissue IL-1β level” value is on record as “reduced” and the “Lung tissue IL-6 level” value is on record as “reduced”. In addition, in test [2] (setting [7]), the “Lung tissue IL-1β level” value was “significantly reduced” and the “Lung tissue IL-6 level” value is “significantly reduced”. Moreover, in test [3], the “Plasma cytokine levels in response to Bleo” value is recorded as “reduced”. Moreover, in test [4] (setting [8]), the “Ratio of WLW to BW” value is “significantly reduced” and the “Wet lung weight (WLW)” value is “significantly reduced”. In test [4] (stellate ganglia administration of RTX in rats with lung injury), the Body weight entry is reported as “improved”. For the same compound, in test [5], the “Arterial pCO2 (elevated by Bleo)” value is recorded as “reversed these changes”, the “Arterial pO2 (reduced by Bleo)” value is “reversed these changes” and the “Arterial sO2 (reduced by Bleo)” value is given as “reversed these changes”.
